# Data from patent US5449608A, “Parvovirus B19 receptor and parvovirus B19 detection” (The United States of America as represented by the …, priority 1993, dated 1995).
# Key:
# human red cells = assay: Hemagglutination (HA) assay with reagent-treated erythrocytes and B19 empty capsids; assay type: cell-based; conditions: for Change in HA titer (log2): erythrocytes incubated with agent at 37° C.; for Effect of red cell treatment on binding of virus to the erythrocytes: human red cells treated with agent
# Text: (§1) The B19 parvovirus receptor was identified utilizing a hemagglutination (HA) assay as described in Brown and Cohen (1992). Briefly, the ability of B19 to hemagglutinate human red cells was utilized to evaluate the ability of certain compounds to inhibit agglutination in the assay. Cellular components from red cell membranes were fractionated and their reactivity evaluated in the HA assay. Lipid extraction and purification of glycolipid fractions followed by evaluation in the HA assay identified the glycosphingolipid, globoside, as the cellular receptor for B19. Further, biochemical characterization and HA evaluation identified the polysaccharide GalNAc(β,3-3)Gal(α1-4)Gal(β,1-4)Glc as the specific binding domain for B19. […] Antibodies specific for globoside were also utilized in the assay to block infectivity to verify that globoside was the receptor.
# In order to characterize the physical nature of the B19 receptor, human red cells were treated with a variety of agents and the change in hemagglutination (HA) titer measured (ICE. Brown et al. (1992)) (Table 1).
# Table 1. Washed erythrocytes (0.5% v/v) were incubated at 37° C.
# with the reagents, washed twice in saline and resuspended at 0.5%. The
# cells were used in a standard hemagglutination assay using B19 empty
# capsids produced in insect cells (Brown and Cohen (1992)) the end point
# was 50% HA (1 HA50). In the table, therefore, an increasing the HA
# titer (log2) by a factor of one reflects a doubling of the measured
# B19 empty capsids [1] = assay: Hemagglutination inhibition assay (HAI); assay type: binding, parvovirus B19; conditions: for HAI titer: Purified glycosphingolipid, 1 mg/ml in saline, 4-8 HA50 units of virus capsid
# Text: as §1
# To identify the B19 cellular receptor, the ability of B19 to agglutinate red cells and B19 infectivity assays were used as measures of viral binding. It had been previously shown that B19 parvovirus empty capsids (S. Kajigaya et al. (1991)) agglutinate human red cells Brown and Cohen (1992)), and we tested the ability of membrane extracts from different cell types to block B19 binding in the hemagglutination assay (HA). Membrane extracts were prepared using 10 mM CHAPS (3-[(3cholamidopropyl)-dimethylammonio]-1-propanesulfonate) to solubilize proteins and lipids.
# Table 2. Human erythrocyte ghosts (J. T. Dodge, et al (1963)) were treate
# with 10 mM CHAPS, the solubilized extract incubated with agarose
# immobilized enzymes overnight at 37° C. and the supernatant tested
# in a hemagglutination inhibition assay (HAI). Purified glycosphingolipids
# (Sigma or BioCarb Chemicals) were dissolved in saline and tested by HAI
# using 4-8 HA50 units of virus capsid. (In the table, CTH is ceramide
# trihexoside and the HAI titer is the dilution required to reduce the HA t
# Table 3. Hemagglutination inhibition (HAI) titers red cell lipid
# fractionated on different columns. Lipid was extracted from red cell
# ghosts (9,12) and fractionated on either a silica gel or
# DEAEcellulose-acetate column (13). Organic solvents were removed by
# evaporation and salts removed by dialysis against water and
# lyophilization. The residual pellets were resuspended in saline and teste
# in the hemagglutination assay.
# B19 virus = assay: Erythroid progenitor assay (CFU-E in methylcellulose) for B19 infection; assay type: cell-based, parvovirus B19; conditions: for Blocking of B19 cytotoxicity to CFU-E: B19 virus preincubated with globoceramide two hours, then bone marrow mononuclear cells two hours, CFU-E counted seven days later
# Method: To establish the biological relevance of binding of virus to P antigen, globoceramides were tested for their ability to block vital infection of permissive cells, using the erythroid progenitor assay (P. P. Mortimer et al. (1983)). Parvovirus B19 is highly toxic to the production of erythroid colonies from late erythroid progenitors (CFU-E) in methylcellulose culture, and this system was used as an assay for B19 infection. In the study, binding of B19 antigen to P antigen was shown by competition of infection using globoside or monoclonal antibody to P antigen. First, B19 virus was preincubated with different globoceramides, e.g., lactosyl, triosyl, and Forssman (Sigma or BioCarb Chemicals) and with different globoside concentrations for two hours, and then mixed with bone marrow mononuclear cells for a further two hours. […] Second, mouse monoclonal antibodies to P-antigen (A. E. yon dem Borne et al. (1986)) or P1 or p^k (BioCarb Chemicals) were diluted 1:100 and incubated with bone marrow mononuclear cells for two hours. Purified B19 virus as above was added for a further two hours. The cell mixtures were plated in methylcellulose (P. Mortimer et al. (1983)) and CFU-E counted seven days later. […] There was no protection with similar antibodies against P1 or p^k.
# B19 empty capsids [2] = assay: Binding of viral capsids to glycosphingolipids by thin layer chromatography; parameters: species or system parvovirus B19; conditions: 1 ug of purified glycosphingolipid on silica plate
# Method: Red cells from individuals with different blood group P system phenotypes were tested for their ability to agglutinate with parvovirus B19. Only cells containing P antigen hemagglutinated: P1 phenotype HA titer was 10,000; P2 phenotype HA titer was 5,000; P1^k and p phenotype were <200. […] Lipids were extracted from 0.2 mls packed red cells (H. Rose et al. (1965)) of patients with different P blood group phenotypes, dried and resuspended in 50 ul chloroform:methanol 1:1.20 ul of extract or 1 ug of each purified glycosphingolipid (Calbiochem) were applied to a silica plate (Merck) and chromatography performed with chloroform:methanol:water 65:25:4. Non-specific binding was blocked with 3% bovine albumin in phosphate buffered saline (16 hours) before the plates were sequentially incubated with B19 empty capsids, a human polyclonal anti-B19 serum, goat anti-human antibody conjugated with horse radish peroxidase, and developed with diaminobenzidene enhanced with cobalt chloride. The capsids bound to the globoside in P1 and P2 cells, and to purified globoside and Forssman antigen. B19 capsids and mouse monoclonal antibody to globoside (A. E. yon dem Borne et al. (1986)) bound to the same band on Western blotting of red cell extract, the putative "globoprotein" (Y. Tonegawa et al. (1977)).
compound,measurement,setting,value
OCCS [2-Mercaptoethanol],Change in HA titer (log2),"human red cells; time 1 hr, final conc. 5 mM",0 log2
"[Na+].[O-][I+3]([O-])([O-])[O-] [NaIO4, sodium periodate]",decrease in HA titer,human red cells; High concentrations (10 mM),> 4 log2
same,Change in HA titer (log2),"human red cells; time 15 min, final conc. 10 mM",< -4 log2
same,Change in HA titer (log2),"human red cells; time 20 hr, final conc. 5 uM",-1 log2
same,Effect of red cell treatment on binding of virus to the erythrocytes,human red cells,markedly reduced binding
C=O [Formaldehyde],Change in HA titer (log2),"human red cells; time 1 hr, final conc. 0.2%",0 log2
O[C@H](CS)[C@H](O)CS (racemic) [Dithiothreitol],Change in HA titer (log2),"human red cells; time 1 hr, final conc. 4 mM",0 log2
O=C(O)CN(CCN(CC(=O)O)CC(=O)O)CC(=O)O [EDTA],Change in HA titer (log2),"human red cells; time 1 hr, final conc. 5 mM",0 log2
Lactosyl ceramide,HAI titer,B19 empty capsids [1],< 10
same,Blocking of B19 cytotoxicity to CFU-E,B19 virus,no effect
"globotetraosylceramide [Globoside, P]",Inhibition of hemagglutination by B19,B19 empty capsids [1],inhibitory activity
same,HAI titer,B19 empty capsids [1],25600
same,Binding of B19 capsids on thin layer chromatography plate,B19 empty capsids [2],bound
same,Blocking of B19 cytotoxicity to CFU-E,B19 virus,completely blocked
same,Relationship of concentration to ability to block infectivity of mononuclear cells with B19 virus,B19 virus; different globoside concentrations,positive linear relationship
"globotriaosylceramide [CTH, P^k]",HAI titer,B19 empty capsids [1],< 10
same,Blocking of B19 cytotoxicity to CFU-E,B19 virus,no effect
Trypsin,Change in HA titer (log2),"human red cells; time 1 hr, final conc. 0.2%",+4 log2
same,Effect of red cell treatment on binding of virus to the erythrocytes,human red cells,increased binding
